Measured values: patent US9884122B2, “Small molecule drug conjugates” (Philochem AG, priority 2014, dated 2018)
Where two headings read alike, the source gives them in different places.

Key:
[1] = system: subcutaneous SKRC52 tumors; conditions: mouse, in vivo
Method: (§1) After 1 h, 2 h or 4 h animals were sacrificed, organs extracted as above, cut into small pieces, weighed and suspended in 1:1 w/v organ homogenization buffer containing EDTA (40 mM), proteinase K (6 mg/ml), Triton X-100 (1.6 μl/ml) and trace amounts of DNase 1 in PBS pH 7.4 (100 μL per 100 mg of tissue). The suspension was homogenized on a TissueLyser organ homogenizer (Quiagen, 25 Hz, 10 min), incubated for 2 h at room temperature and 100 μL of the homogenate transferred to a black 96-well plate. […] Fluorescent images of plates were recorded on an IVIS Spectrum imaging system (Xenogen, parameters as above) and analyzed using Living Image software version 4.3.1 (Caliper Life Science) using the built-in region of interest (ROI) tools. Dye concentrations in organ samples in % of injected dose per gram of tissue (% ID g^−1) were inferred from fluorescence intensities originating from the corresponding well by comparison with the standard dilution series.

[2] = system: CAIX positive SKRC52 cells; assay: Ligand internalization analysis by flow cytometry, SKRC52; assay type: cell-based, human
Method: SKRC52 or A549 cells were seeded in 6-well plates in their appropriate culture medium (2 mL) at a density of 1.5×10^5 cells per well and allowed to grow for 24 h under culture conditions. The medium was replaced with medium containing IRDye750 (Licor) labeled probes 1c or 6c (2 mL, 30 nM) and plates incubated for 1, 2 or 4 h under standard culture conditions. After washing with PBS pH 7.4 (2×2 mL), Trypsin-EDTA 0.05% (500 μL, Invitrogen) was added and plates incubated under standard culture conditions for 15 min Medium (500 μL) was added, cells pelleted and resuspended in PBS pH 7.4 containing 1% v/v FCS (150 μL). After incubating for 15 min on ice, cells were labeled for 30 min on ice with rabbit anti human CAIX IgG (1:100, Santa Cruz) in PBS pH 7.4 containing 1% FCS (150 μL), washed with PBS pH 7.4 containing 1% FCS (2×150 μL) and labeled for 30 min on ice with goat anti rabbit IgG Alexa488 conjugate (1:100, Invitrogen) in PBS pH 7.4 containing 1% FCS (150 μL). After washing with PBS pH 7.4 containing 1% FCS (2×150 μL), cells were pelleted and resuspended in PBS pH 7.4 containing 1% v/v FCS and propidium iodide (300 μL, 1 μg mL^−1, Invitrogen) and analyzed on a FACS Canto flow cytometer (BD Bioscience). FlowJo Version 8.7 (Treestar) was used for data analysis and visualization. To inhibit uptake mechanisms, cells were pre-incubated with medium containing 0.2% NaN3 for 1 h and the NaN3 concentration maintained throughout the entire experiment. Alternatively, all steps were performed at 0° C. or an excess of AAZ (100 μM) was added to the culture medium.

[3] = system: CAIX expressing SKRC52 cells; assay: Ligand binding analysis by flow cytometry, SKRC52; assay type: cell-based, human; conditions: 30 nM dye conjugate, 1 h at 0° C., washed
Method: Cells were detached from culture plates using a 50 mM EDTA solution in phosphate buffered saline (PBS) pH 7.4, counted and suspended to a final concentration of 1.5×10^6 cells mL^−1 in a 1% v/v solution of FCS in PBS pH 7.4. Aliquots of 3×10^5 cells (200 μL) were spun down and resuspended in solutions of IRDye750 (Licor) labeled ligands (30 nM) in a 1% v/v solution of FCS in PBS pH 7.4 (200 μL) and incubated on ice for 1 h. Cells were washed once with 200 μL 1% v/v solution of FCS in PBS pH 7.4 (200 μL), spun down, resuspended in 1% v/v solution of FCS in PBS pH 7.4 (300 μL) and analyzed on a FACS Canto flow cytometer (BD Bioscience). FlowJo Version 8.7 (Treestar) was used for data analysis and visualization. Results were as follows: • (1) Flow cytometry analysis of binding of ligand-IRDye750 conjugates 1c-6c (FIG. 1) to CAIX expressing SKRC52 cells.
Flow cytometry was performed as described above with monovalent and bivalent near infrared dye conjugates B3 and B4 and negative control conjugates lacking the ligand on CAIX-positive SKRC52 cells and CAIX-negative HEK cells^5.

[4] = system: subcutaneous SKRC52 tumors
Method: SKRC52 cells were grown to 80% confluence and detached with Trypsin-EDTA 0.05% (Invitrogen). Cells were washed with PBS pH 7.4 once, counted and resuspended in PBS to a final concentration of 6.7×10^7 cells mL^−1. Athymic balb/c nu/nu mice, 8-10 weeks of age (Charles River) were anesthetized with isofluorane and aliquots of 1×10^7 cells (150 μL of suspension) injected subcutaneously into their lower back.
Food and water was given ad libitum during that period.
Mice were subsequently sacrificed by cervical dislocation.

in vivo = conditions: balb/c nu/nu, mouse, iv
Method: as §1

CAIX = target: T1, CAIX (Homo sapiens, UniProt Q16790); assay: Affinity determination of CAIX ligands by fluorescence polarization; assay type: binding; conditions: PBS pH 7.4, 22° C., 1 h; read-out: Kd by fluorescence polarization in solution
T1 construct: His6; made in house
Method: Fluorescein labelled ligands (5 nM diluted with PBS from DMSO stocks, final DMSO content adjusted to 0.001%) were incubated at 22° C. for 1 h in a black 384-well plate (Greiner, non-binding) in PBS (pH 7.4) with increasing concentrations of CAIX to a final volume of 60 μl. The fluorescence anisotropy was measured on a Spectra Max Paradigm multimode plate reader (Molecular Devices). Experiments were performed in triplicate and the mean anisotropy values fitted to the following equation using KaleidaGraph 4.1.3 (Synergy Software),
[formula] where A is the anisotropy, [P]0 the total protein concentration, [L]0 the total concentration of the fluorescently labelled ligand and KD the dissociation constant.

SMILES | tumor to heart ratio [1] | tumor-to-blood ratio [1] | tumor-to-organ ratio, kidneys [1] | tumor-to-organ ratio, liver [1] | tumor-to-blood ratio ([1]; iv) | internalization with extended incubation time ([2]; 30 nM at 37° C., 2 h and 4 h versus 1 h) | internalization under conditions inhibiting uptake ([2]; 30 nM, 0.2% w/v NaN3, same with excess AAZ or at 0° C.) | internalization: fluorescence after trypsin detachment ([2]; 30 nM, 1 h at 37° C.) | binding to SKRC52 cells (fluorescence shift) [3] | tumor visibility by near infrared imaging ([4]; 1 nmol intravenous, 1 h) | tumor targeting by near infrared imaging ([4]; 3 nmol intravenous, 1-12 h) | half-life (in vivo) | Kd (CAIX)
CC1(C)C(/C=C/C2=C(c3ccc(CCCCC(=O)NCCOCCOCCNC(=O)CCC(=O)Nc4nnc(S(N)(=O)=O)s4)cc3)C(=C/C=C3/N(CCCCS(=O)(=O)O)c4ccc(S(=O)(=O)[O-])cc4C3(C)C)/CCC2)=[N+](CCCCS(=O)(=O)O)c2ccc(S(=O)(=O)O)cc21 [Compound 1c, N1-(2-(2-(2-aminoethoxy)ethoxy)ethyl)-N4-(5-sulfamoyl-1,3,4-thiadiazol-2-yl)succinamide IRDye750 conjugate] | 27.6:1 | 79.2:1 | 1.4:1 | 0.2:1 | 13.8:1 | did not see a markedly increased signal | fluorescent signal was shifted to baseline | higher fluorescence intensity than cells treated with non-binding conjugate 6c or untreated cells | binds strongly enough to result in a strong fluorescence shift after washing of cells | the tumor could clearly be seen against background | gave good tumor to background contrast | ~1 h | –
CC(CCC(=O)N[C@@H](CC(=O)N[C@@H](CC(=O)N[C@@H](CCCCn1cc(CCCC(=O)Nc2nnc(S(N)(=O)=O)s2)nn1)C(=O)NCCOCCOCCN)C(=O)O)C(=O)O)(c1ccc(O)cc1)c1ccc(O)cc1 [Compound C5a, N-[4,4-bis(4-hydroxyphenyl)pentanoyl]-β-aspartyl-β-aspartyl-N-{2-[2-(2-aminoethoxy)ethoxy]ethyl}-6-(4-{4-oxo-4-[(5-sulfamoyl-1,3,4-thiadiazol-2-yl)amino]butyl}-1H-1,2,3-triazol-1-yl)-L-norleucinamide] | – | – | – | – | – | – | – | – | – | – | – | – | 0.2 ± 0.1 nM
